Tests used:
[1] = tested on: mHTT protein; experiment: mHTT protein assay (2B7-MW1, Mesoscale Discovery); format: cell-based, human; conditions: GM04724 (CAG 70/20) Huntington's disease patient lymphoblast cells, 48 hours, 2B7-MW1 MSD; read-out: HTT Potency - Protein EC50 mHTT (average)
Method in brief: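 mHTT levels were read with the 2B7-MW1 antibody pair (N17 and polyQ epitopes) on MSD after 48 h dosing, 10 μM–0.6 nM. Cells were GM04724 HD lymphoblasts (CAG 70/20). A replica plate was read by CTG for cell viability.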

[2] = tested on: MDR1; experiment: MDCK-MDR1 permeability assay (BBB penetration potential); format: in vitro ADME; conditions: dog; for efflux ratio at 120 min, 5 μM: MDCK-MDR1, pH 7.4, MDCK-MDR1: Efflux; for Papp A→B at 120 min, 5 μM: MDCK-MDR1, pH 7.4, MDCK-MDR1: Papp A-B; for Papp B→A at 120 min, 5 μM: MDCK-MDR1, pH 7.4, MDCK-MDR1: Papp B-A
Protocol: (§1) Each determination is performed in duplicate. […] Analytical conditions are outlined below.

[3] = tested on: MDR1-MDCK cell monolayers; experiment: as above; format: in vitro ADME; conditions: dog, MDCK-MDR1, 120 min, 5 μM, pH 7.4
Protocol: as §1

Row | SMILES | EC50 [1] | efflux ratio at 120 min, 5 μM [2] | Papp A→B at 120 min, 5 μM [2] | Papp B→A at 120 min, 5 μM [2] | MDCK-MDR1: % Recov A-B [3] | MDCK-MDR1: % Recov B-A [3]
1 | Oc1cc(-c2ccc3nncn3c2)ccc1-c1ccc(O[C@@H]2C[C@H]3CCC[C@H](N3)[C@@H]2F)nn1 (single isomer, unassigned) [73-ENT1] | 0.101 to 0.5 µM | 92 | 0.44 ×10⁻⁶ cm/s | 40.9 ×10⁻⁶ cm/s | 94% | 85%
2 | Cc1nnc(-c2ccc(-c3ccc(O[C@H]4C[C@@H]5CCC[C@@H](N5)[C@H]4F)nn3)c(O)c2)o1 (single isomer, unassigned) [94-ENT2] | 0.101 to 0.5 µM | 7 | 6.35 ×10⁻⁶ cm/s | 46.7 ×10⁻⁶ cm/s | 93% | 87%
3 | Oc1cc(-c2ccnnc2)ccc1-c1ccc(O[C@@H]2C[C@H]3CCC[C@H](N3)[C@@H]2F)nn1 (single isomer, unassigned) [87-ENT1] | 0.101 to 0.5 µM | 20 | 2.75 ×10⁻⁶ cm/s | 55.8 ×10⁻⁶ cm/s | 92% | 100%
4 | Oc1cc(-n2ccnc2)ccc1-c1ccc(O[C@@H]2C[C@H]3CC[C@H](N3)[C@@H]2F)nn1 (single isomer, unassigned) [36-ENT1] | 0.051 to 0.1 µM | 5 | 5.28 ×10⁻⁶ cm/s | 26 ×10⁻⁶ cm/s | 74% | 83%
5 | O=c1cc(-c2ccc(-c3ccc(O[C@H]4C[C@@H]5CCC[C@@H](N5)[C@H]4F)nn3)c(O)c2)ccn1CF (single isomer, unassigned) [106-ENT2] | 0.051 to 0.1 µM | 39 | 1.45 ×10⁻⁶ cm/s | 56.7 ×10⁻⁶ cm/s | 79% | 80%
6 | Cn1ccc(-c2ccc(-c3ccc(O[C@H]4C[C@@H]5CCC[C@@H](N5)[C@H]4F)nn3)c(O)c2)nc1=O (single isomer, unassigned) [107-ENT2] | 0.101 to 0.5 µM | 100 | 0.11 ×10⁻⁶ cm/s | 11.2 ×10⁻⁶ cm/s | 97% | 103%
7 | N#Cc1ccc(-c2ccc(O[C@H]3C[C@@H]4CC[C@@H](N4)[C@H]3F)nn2)c(O)c1 (single isomer, unassigned) [111-ENT2] | 0.501 to 10 µM | 4 | 14.4 ×10⁻⁶ cm/s | 58.7 ×10⁻⁶ cm/s | 92% | 96%
8 | Cn1ccc(=O)c2cc(-c3ccc(O[C@@H]4C[C@@]5(C)CCC[C@](C)(N5)[C@@H]4F)nn3)c(O)cc21 (single isomer, unassigned) [131-ENT2] | 0.501 to 10 µM | 56 | 0.79 ×10⁻⁶ cm/s | 44.6 ×10⁻⁶ cm/s | 91% | 96%
9 | Oc1cc(-c2ccc3nccn3c2)ccc1-c1ccc(O[C@H]2C[C@@H]3CCC[C@@H](N3)[C@H]2F)nn1 (single isomer, unassigned) [84-ENT2] | 0.016 to 0.05 µM | 14 | 1.63 ×10⁻⁶ cm/s | 22.8 ×10⁻⁶ cm/s | 43% | 73%
10 | N#Cc1ccc(-c2ccc(O[C@@H]3C[C@H]4CCC[C@H](N4)[C@@H]3F)nn2)c(O)c1 (single isomer, unassigned) [110-ENT1] | 0.501 to 10 µM | 13 | 5.37 ×10⁻⁶ cm/s | 68.2 ×10⁻⁶ cm/s | 101% | 100%
11 | Cc1cncc(-c2ccc(-c3ccc(O[C@H]4C[C@@H]5CCC[C@@H](N5)[C@H]4F)nn3)c(O)c2)n1 (single isomer, unassigned) [102-ENT2] | 0.101 to 0.5 µM | 6 | 7.93 ×10⁻⁶ cm/s | 48.4 ×10⁻⁶ cm/s | 86% | 89%
12 | Oc1cc(-c2ccc3nccn3c2)ccc1-c1ccc(O[C@@H]2C[C@H]3CCC[C@H](N3)[C@@H]2F)nn1 (single isomer, unassigned) [84-ENT1] | 0.016 to 0.05 µM | 11 | 1.56 ×10⁻⁶ cm/s | 17 ×10⁻⁶ cm/s | 44% | 72%
13 | Oc1cc(-c2ccc3cncn3c2)ccc1-c1ccc(O[C@@H]2C[C@H]3CCC[C@H](N3)[C@@H]2F)nn1 (single isomer, unassigned) [85-ENT1] | 0.101 to 0.5 µM | 6 | 2.12 ×10⁻⁶ cm/s | 12.1 ×10⁻⁶ cm/s | 33% | 66%
14 | Cn1cnc(-c2ccc(-c3ccc(O[C@@H]4C[C@H]5CCC[C@H](N5)[C@@H]4F)nn3)c(O)c2)cc1=O (single isomer, unassigned) [138-ENT1] | 0.051 to 0.1 µM | 47 | 1.14 ×10⁻⁶ cm/s | 53.9 ×10⁻⁶ cm/s | 86% | 98%
15 | N#Cc1ccc(-c2ccc(O[C@H]3C[C@@H]4CCC[C@@H](N4)[C@H]3F)nn2)c(O)c1 (single isomer, unassigned) [110-ENT2] | 0.501 to 10 µM | 8 | 7.44 ×10⁻⁶ cm/s | 56.9 ×10⁻⁶ cm/s | 95% | 97%
16 | Cc1ccc(-c2ccc(-c3ccc(O[C@H]4C[C@@H]5CCC[C@@H](N5)[C@H]4F)nn3)c(O)c2)s1 (single isomer, unassigned) [100-ENT2] | 0.101 to 0.5 µM | 1 | 1.14 ×10⁻⁶ cm/s | 0.68 ×10⁻⁶ cm/s | 18% | 57%
17 | Cc1nocc1-c1ccc(-c2ccc(O[C@H]3C[C@@H]4CCC[C@@H](N4)[C@H]3F)nn2)c(O)c1 (single isomer, unassigned) [72-ENT2] | 0.101 to 0.5 µM | 7 | 4.67 ×10⁻⁶ cm/s | 34.9 ×10⁻⁶ cm/s | 64% | 74%
18 | Oc1cc(-n2ncc3ccccc32)ccc1-c1ccc(O[C@H]2C[C@@H]3CC[C@@H](N3)[C@H]2F)nn1 (single isomer, unassigned) [114-ENT2] | 0.501 to 10 µM | 4 | 3.86 ×10⁻⁶ cm/s | 15.1 ×10⁻⁶ cm/s | 18% | 42%
19 | Oc1cc(-n2ccnc2)ccc1-c1ccc(O[C@H]2C[C@@H]3CC[C@@H](N3)[C@H]2F)nn1 (single isomer, unassigned) [36-ENT2] | 0.051 to 0.1 µM | 5 | 5.41 ×10⁻⁶ cm/s | 28.9 ×10⁻⁶ cm/s | 61% | 73%
20 | Oc1cc2ncccc2cc1-c1ccc(O[C@@H]2C[C@H]3CCC[C@H](N3)[C@@H]2F)nn1 (single isomer, unassigned) [103-ENT1] | 0.501 to 10 µM | 16 | 3.92 ×10⁻⁶ cm/s | 61.5 ×10⁻⁶ cm/s | 95% | 101%
21 | Oc1cc2cnccc2cc1-c1ccc(O[C@@H]2C[C@H]3CCC[C@H](N3)[C@@H]2F)nn1 (single isomer, unassigned) [80-ENT1] | 0.101 to 0.5 µM | 4 | 7.47 ×10⁻⁶ cm/s | 31.4 ×10⁻⁶ cm/s | 70% | 78%

Reference: US12522597B2, “Methods and compositions for modulating splicing” (Skyhawk Therapeutics, Inc., priority 2019, dated 2026)
